The source of these data is patent US20230031954A1, “TETRACYCLINE COMPOUNDS AND METHODS OF TREATMENT” (Tetraphase Phamaceuticals, Inc., priority 2016, published 2023).

Molecules are shown by their SMILES. Some results are limits rather than exact numbers.

In assay [1] the test system is subcutaneous MV4-11 leukemia model. The assay can be described thus: MV4-11 xenografts: in vivo anti-tumor efficacy in CB17 SCID mice. Details: species or system mouse. The following applies: for tumor response: dosed at maximum tolerated dose, cytarabine 100 mg/kg I.P. QD, tigecycline 50 mg/kg I.P. BID. Here is the method:
The in vivo anti-tumor efficacy of Compounds 3a, 4a and 5 in the subcutaneous MV4-11 leukemia model in CB17 SCID mice was tested.
The MV4-11 cells (ATCC-CRL-9591) were maintained in vitro as a suspension culture at a density of 0.2-1.5×10^6 cells/ml in RPMI1640 medium supplemented with 10% heat inactivated fetal bovine serum, 100 U/ml penicillin and 100 μg/ml streptomycin at 37° C. in an atmosphere of 5% CO2 in air. The tumor cells were routinely subcultured twice weekly. The cells growing in an exponential growth phase were harvested and counted for tumor inoculation.
CB17 SCID, female, 6-8 weeks, weighing approximately 18-22 g.
Each mouse was inoculated subcutaneously at the right flank with MV4-11 tumor cells (10×10^6) in 0.2 ml of PBS (with Matrigel 1:1) for tumor development. The animals were randomized and treatment was started when the average tumor volume reached approximately 150-200 mm^3 for the efficacy study. The test article administration and the animal numbers in each group are shown below.
The major endpoint monitored was tumor growth delay or cure. Tumor sizes were measured twice weekly in two dimensions using a caliper, and the volume expressed in mm^3 using the formula: V=0.5 a×b^2 where a and b are the long and short diameters of the tumor, respectively. The tumor sizes were then used for the calculations of both T-C and T/C values. T-C is calculated with T as the median time (in days) required for the treatment group tumors to reach a predetermined size (e.g., 1,000 mm^3), and C is the median time (in days) for the control group tumors to reach the same size. […]
TGI was calculated for each group using the formula: TGI (%)=[1−(Ti−T0)/(Vi−V0)]×100; Ti is the average tumor volume of a treatment group on a given day, T0 is the average tumor volume of the treatment group on the first day of treatment, Vi is the average tumor volume of the vehicle control group on the same day with Ti, and V0 is the average tumor volume of the vehicle group on the first day of treatment.

For another assay, the system named is THP-1 cells. The assay can be described thus: THP-1 anti-proliferation assay (Cell Titer GLO, 72 hr). Format: cell-based. The following applies: Homo sapiens. Here is the method: The inhibition of eukaryotic cell culture growth was established using THP-1 cells (ATCC Cat. #TIB-202), a human acute monocytic leukemia cell line. These are suspension cells. This cell-based assay for eukaryotic culture growth inhibition was performed in 384-well plate format to determine the in vitro cytotoxicity of the test compounds.
Compounds were solubilized in water. Compounds were diluted 1:2 in assay media and 1:2 serial dilutions were performed in 50:50 media:water mix. The high dose was 40 μM, 10% water final. 5 μL of compound at 5× the final concentration was dispensed to the 384 assay plate. 20 μL of THP-1 cells were added.
Compounds were plated in dose response format (10% water final concentration), followed by the addition of cells. Cells were grown and incubated with compounds in RPMI-1640 medium/pen/strep/L-glutamine/10% FBS/2-mercaptoethanol for 72 hr at 37° C. with 5% CO2. At the end of the incubation time, cells were assayed for viability using Cell Titer GLO (Promega).

The test system of a further assay is MV4-11 cell line. The assay can be described thus: MV4-11 anti-proliferation assay (CellTiterGlo, 72 hour). Format: cell-based. The following applies: Homo sapiens, MV4-11 cells. As for the experimental part:
MV4-11 cell line (MV-4-11, CRL-9591™) was obtained from American Type Culture Collection (ATCC). Cells were grown in a T-75 flask in RPMI Medium (GIBCO, Catalog No. 11875-093) containing 10% fetal bovine serum (ATCC, Catalog No. 30-2020) and penicillin-streptomycin (ATCC, Catalog No. 30-2300) at 37° C. in a humidified, 5% CO2 incubator.
(§1) 50 μL of cells (10,000 cells/well) were plated in a 96-well plate and incubated overnight at 37° C. in a humidified, 5% CO2 incubator. The next day, 50 μL of medium containing 3-fold serially diluted compounds in duplicate was added to the wells such that the starting concentration of the compound in the first pair of the wells was 10 μM. After 72 hour incubation with the compound, cell viability was measured in a luminometer after the addition of 100 μL/well CellTiterGlo reagent (Promega) as recommended by the manufacturer. The IC50 values for the compounds were calculated using SoftMax software.

The next assay deals with MOLT4 cell line. Nature of the assay: Proliferation assay in MOLT4 cell line (CellTiterGlo, 72 hour). Format: cell-based. The following applies: Homo sapiens, MOLT-4, MOLT4 cells. Here is the method: (§2) Compounds 1, 2, 3a, 4a and 5 as well as certain Compound included in FIGS. 15A-15M, 16A-16F and 17A-17D were tested in the following cell lines: MOLT4 and K562. Compounds 1, 2, 3a, 4a and 5 were also tested in the cell line HL60.
(§3) The MOLT4 cell line (CRL-1582™) and K562 cell line (CCL-243™) were obtained from American Type Culture Collection (ATCC). They were grown in a T-75 flask in RPMI Medium (GIBCO, Catalog No. 11875-093) containing 10% fetal bovine serum (ATCC, Catalog No. 30-2020) and penicillin-streptomycin (ATCC, Catalog No. 30-2300) at 37° C. in a humidified, 5% CO2 incubator. The HL60 cell line (CCL-240™) was obtained from American Type Culture Collection (ATCC). They were grown in a T-75 flask in DMEM Medium (GIBCO, Catalog No. 11965-092) containing 20% fetal bovine serum (ATCC, Catalog No. 30-2020) and penicillin-streptomycin (ATCC, Catalog No. 30-2300) at 37° C. in a humidified, 5% CO2 incubator.
as §1, with “(8,500” for “(10,000”

A further assay deals with K562 cell line. The assay can be described thus: Proliferation assay in K562 cell line (CellTiterGlo, 72 hour). Format: cell-based. The following applies: Homo sapiens, K562 cells. Here is the method:
as §2, §3
as §1, with “(8,500” for “(10,000”

A further assay concerns HL60 cell line. Nature of the assay: Proliferation assay in HL60 cell line (CellTiterGlo, 72 hour). The class given is cell-based. The following applies: Homo sapiens, HL-60, HL60 cells. Here is the method:
as §2, §3
as §1, with “(8,500” for “(10,000”

Assay [2] concerns AML ex-vivo bone marrow samples. The assay can be described thus: Antiproliferative activity against 15 AML ex-vivo bone marrow samples (Vivia's Native Environment cell depletion assay). Format: cell-based, human. The following applies: 48 hours post drug exposure. Here is the method: Antiproliferative activity of Compound 3a and cytarabine was measured against 15 AML ex-vivo bone marrow samples (including two cytarabine-resistant samples). The assay used was Vivia's Native Environment cell depletion assay. An outline of the study is below: • Five different concentrations of each drug was used as a monotherapy • The incubation time point for measurement was 48 hours post drug exposure The results are shown graphically in FIG. 6.

The test system of assay [3] is mitochondrial protein synthesis. Nature of the assay: Intact isolated rat heart mitochondrial protein synthesis assay ([S35]-methionine incorporation). The class given is biochemical. The following applies: isolated rat heart mitochondria, 0.15 to 40 μM; read-out: dose-response curve IC50, mitochondrial protein synthesis. As for the experimental part: The effect of Compound 3a on mitochondrial protein synthesis was determined using an intact isolated rat heart mitochondrial protein synthesis assay previously described [See, 1, 2 below]. Intact, highly coupled mitochondria isolated from normal rat hearts were incubated in an incubation medium containing [S^35]-methionine. The compounds were diluted to generate a final dose-response curve from 0.15 to 40 μM. The rate of incorporation of [S^35]-methionine into protein was measured at 20, 40, and 60 minutes of incubation for each sample using a filter paper disc assay and expressed as pmol methionine incorporated per mg mitochondrial protein as described [1, 2, 3 below]. The time course data for control and all drug concentrations were nearly linear. The slope of each time-course data plot is calculated as the least squares best fit line through zero and the three time points for each sample. The rate of protein synthesis varies modestly with each mitochondrial preparation (mean and SEM=20.3+/−2.4 pm/mg protein). To normalize for this variability, the rates were expressed as a percent of the rate of the control line for each preparation of mitochondria.
Each experiment was repeated three times.
Dose-response curves were obtained by expressing the percent of control obtained for each concentration of Compound 3a against the concentration of Compound 3a. […]

As to `Nc1ccn([C@@H]2O[C@H](CO)[C@@H](O)[C@@H]2O)c(=O)n1` [Cytarabine], the tumor response entry in assay [1] is “no tumor response”.
For `CCN[C@@H]1C(O)=C(C(N)=O)C(=O)[C@@]2(O)C(O)=C3C(=O)c4c(O)cc([C@@H]5CCCN5CC)c(OC)c4C[C@H]3C[C@@H]12` (single isomer, unassigned) [Compound 4a], the IC50 in the assay on THP-1 cells was 0.9 µM; with MV4-11 cell line, 0.13 µM; in the assay on MOLT4 cell line it was 0.13 µM; in the assay on K562 cell line, 0.13 µM; in the assay on HL60 cell line it was 0.41 µM.
`NC(=O)C1=C(O)[C@@H](N)[C@@H]2C[C@@H]3Cc4c(F)cc(NC(=O)CN5CCCC5)c(O)c4C(=O)C3=C(O)[C@]2(O)C1=O` [Compound 5]: the IC50 in the assay on THP-1 cells came out at 0.64 µM; in the assay with MV4-11 cell line it was 0.17 µM; in the assay with MOLT4 cell line, 0.13 µM; in the assay on K562 cell line it was 0.16 µM; in the assay on HL60 cell line, 0.51 µM.
As for `CCN1CCC[C@H]1c1cc(O)c2c(c1OC)C[C@H]1C[C@H]3[C@H](N)C(O)=C(C(N)=O)C(=O)[C@@]3(O)C(O)=C1C2=O` [Compound 3a], the IC50 in the assay on THP-1 cells is 0.75 µM; in the assay on MV4-11 cell line, 0.1 µM; with MOLT4 cell line, 0.12 µM; with K562 cell line it was 0.11 µM; in the assay with HL60 cell line, 0.37 µM; in assay [3], 700 nM. For the same compound, the “ex vivo activity against the tumor cells from frozen bone marrow of the AML patients” value in assay [2] (monotherapy) is listed as “potent ex vivo activity”. The EC50 in assay [2] (Homo sapiens, 15 AML ex-vivo bone marrow samples) stood at 170 nM. In addition, the tumor shrinkage in assay [1] (all animals treated, 12.5 mg/kg I.P., dose 1 and dose 2 of Table 1C) is reported as not below 70%.
For the compound `CN(C)c1cc(NC(=O)CNC(C)(C)C)c(O)c2c1C[C@H]1C[C@H]3[C@H](N(C)C)C(O)=C(C(N)=O)C(=O)[C@@]3(O)C(O)=C1C2=O` [Tigecycline, tigecycline, reference compound], the concentration for half-maximal inhibition (IC50) came out at 29.1 µM in the assay on THP-1 cells; 4.64 µM in the assay with MV4-11 cell line; 5.1 µM in the assay on MOLT4 cell line; 7.2 µM in the assay with K562 cell line; 15.4 µM in the assay on HL60 cell line. Moreover, the tumor response entry in assay [1] was “no tumor response”.
